Test [1] concerns the target T1, fucosyltransferase (FUT-8) (Homo sapiens, UniProt Q9BYC5).
T1 sequence (Q9BYC5 1-575): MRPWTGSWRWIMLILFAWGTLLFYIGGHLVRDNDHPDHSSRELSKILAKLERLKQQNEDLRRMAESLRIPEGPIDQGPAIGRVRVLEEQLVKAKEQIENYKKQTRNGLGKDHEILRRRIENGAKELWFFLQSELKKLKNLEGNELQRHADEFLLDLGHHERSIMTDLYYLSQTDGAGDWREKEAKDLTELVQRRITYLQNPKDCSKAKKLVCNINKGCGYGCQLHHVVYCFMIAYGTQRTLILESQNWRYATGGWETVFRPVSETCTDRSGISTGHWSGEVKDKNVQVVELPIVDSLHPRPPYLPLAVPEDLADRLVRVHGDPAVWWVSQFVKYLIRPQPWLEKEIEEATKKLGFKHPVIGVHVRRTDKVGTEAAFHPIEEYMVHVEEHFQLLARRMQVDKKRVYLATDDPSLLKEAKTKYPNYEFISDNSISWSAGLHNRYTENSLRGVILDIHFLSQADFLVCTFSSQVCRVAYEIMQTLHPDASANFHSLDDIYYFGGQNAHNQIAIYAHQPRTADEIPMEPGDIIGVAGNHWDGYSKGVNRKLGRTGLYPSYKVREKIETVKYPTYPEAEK
The test can be described thus: Inhibition of fucosyltransferase (FUT-8) activity, detection of fucosylation of the substrate protein. The class given is biochemical. Particulars: for inhibition at 10 µM: read-out: Primary Screen (10 μM), inhibition value. As for the experimental part:
Briefly, a compound was combined with fucosyltransferase (FUT-8) and appropriate substrates and incubated for 1 hour. The reaction was terminated, and a detection reagent mixture was added to detect the amount of fucosylation of the substrate protein.

Test [2] deals with CHO cells producing an anti-IL8 IgG monoclonal antibody (ATCC CRL-12445). The test can be described thus: Reduction of fucosylation of anti-IL8 mAb produced by CHO cells, LC-MS analysis. The class given is cell-based. From the text: Briefly, Epicatechin Monogallate (ECG), Epicatechin-3-Monogallate (ECGC) and Aurin Tricarboxylic Acid (ATA) were included in the cell culture media and added to CHO cells producing an anti-IL8 IgG monoclonal antibody (mAb) obtained from [NT] CRL-12445), which is also described in U.S. Pat. No. 6,025,158, which is hereby incorporated by reference in its entirety. After a specified period of time the cells were harvested and the anti-IL8 mAb purified by standard methods. Purified anit-IL8 mAbs were then reduced by the addition of dithiothreitol and subjected to LC-MS analysis to determine the level of fucosylation. The decrease in the level of anti-IL8 fucosylation are depicted in FIG. 20 AND FIG. 21.

Setting [3] is: 10 μM compound, incubated for 1 hour.
The mark [4] stands for this setting: incubated for 1 hour, read-out: IC50 Value.

Structures can show the parent of a compound that is named as a salt. Where two headings read alike, the source gives them in different places.

For orientation: inhibition means how much of the control response was suppressed. For orientation: IC50 means the concentration that inhibits the measured activity by half. As for `O=C1c2c(O)cccc2Cc2cccc(O)c21` [Anthralin, reference compound], the inhibition at 10 µM in test [1] (setting [3]) came out at 28%. For the same compound, the 50% inhibitory concentration (IC50) in test [1] (setting [4]) is above 10 µM.
On the same counts, the results for `O=c1c(O)cccc2cc(O)c(O)c(O)c12` [Purpurogallin] are 30% and above 10 µM.
The matching figures for `C[n+]1c2cc(N)ccc2cc2ccc(N)cc21` [Acriflavinium]: 47% and above 10 µM.
Take `O=C(O[C@@H]1Cc2c(O)cc(O)cc2O[C@@H]1c1ccc(O)c(O)c1)c1cc(O)c(O)c(O)c1` [Epicatechin Monogallate]: the reduction in fucosylation turned out to be 13% in test [2] (10-fold lower concentration than 100 μM) and 25% in test [2] (maximum concentration (100 μM) in cell culture media). Besides, the “core fucosylated species, with concomitant rise in the afucosylated species” value in test [2] (dose dependence) is recorded as “dose dependent decrease”. The inhibition at 10 µM in test [1] (setting [3]) worked out at 25%. Moreover, the concentration for half-maximal inhibition (IC50) in test [1] (setting [4]) was above 10 µM.
As for `O=c1cc(-c2ccccc2)oc2cc(O)c(O)c(O)c12` [Baicalein], the inhibition at 10 µM in test [1] (setting [3]) came to 29%.
In the case of `O=c1cc(-c2ccccc2)oc2cc(O)cc(O)c12` [Chrysin], the inhibition at 10 µM in test [1] (setting [3]) turned out to be 30%. In test [1] (setting [4]), the concentration for half-maximal inhibition (IC50) was above 10 µM.
In the case of `N.N.[Cl][Pt][Cl]` [Cisplatin, reference compound], the “Primary Screen (10 μM), inhibition value” in test [1] (setting [3]) is 60%. Besides, in test [1] (setting [4]), the IC50 was above 10 µM.
Regarding `O=C1c2c(O)ccc(O)c2C(=O)c2c(NCCNCCO)ccc(NCCNCCO)c21` [Mitoxanthrone Hydrocloride, Mitoxanthrone Hydrochloride, reference compound], the inhibition at 10 µM in test [1] (setting [3]) stood at 49%. For the same compound, in test [1] (setting [4]), the IC50 is above 10 µM.
On the same counts, the results for `O=C(OC[C@H]1O[C@@H](OC(=O)c2cc(O)c(O)c(OC(=O)c3cc(O)c(O)c(O)c3)c2)[C@H](OC(=O)c2cc(O)c(O)c(OC(=O)c3cc(O)c(O)c(O)c3)c2)[C@@H](OC(=O)c2cc(O)c(O)c(OC(=O)c3cc(O)c(O)c(O)c3)c2)[C@@H]1OC(=O)c1cc(O)c(O)c(OC(=O)c2cc(O)c(O)c(O)c2)c1)c1cc(O)c(O)c(OC(=O)c2cc(O)c(O)c(O)c2)c1` [Tannic Acid] are 93% and below 10 µM.
The matching figures for `CCOc1ccc2nc3cc(N)ccc3c(N)c2c1` [Ethcridine Lactate, Etheridine Lactate]: 26% and above 10 µM.
`O=C1C=C2CC3(O)COc4c(ccc(O)c4O)C3=C2C=C1O` (centres unmarked): the inhibition at 10 µM in test [1] (setting [3]) is 82%. Further, the IC50 in test [1] (setting [4]) is below 10 µM.
For `Cc1cc2c(C(C)C)c(O)c(O)c(C=O)c2c(O)c1-c1c(C)cc2c(C(C)C)c(O)c(O)c(C=O)c2c1O` [Gossypol], in test [1], the half-maximal inhibitory concentration (IC50) is above 10 µM and the inhibition at 10 µM was 26%.
Regarding `O=c1cc(-c2ccccc2)oc2cccc(O)c12` [Primuletin], the inhibition at 10 µM in test [1] (setting [3]) was determined as 30%. In test [1] (setting [4]), the IC50 was above 10 µM.
For `C=C1c2cccc(O)c2C(=O)C2=C(O)[C@]3(O)C(=O)C(C(N)=O)=C(O)[C@@H](N(C)C)[C@@H]3[C@@H](O)[C@H]12` [Methacycline, reference compound], in test [1] (setting [3]), the “Primary Screen (10 μM), inhibition value” was found to be 82%. The IC50 in test [1] (setting [4]) was below 10 µM.
Take `CCN(CC)CCNc1ccc(CO)c2sc3ccccc3c(=O)c12` [Hycanthone, reference compound]: the inhibition at 10 µM in test [1] (setting [3]) stood at 27%. Moreover, in test [1] (setting [4]), the 50% inhibitory concentration (IC50) is above 10 µM.
As to `Oc1c(Cl)cc(Cl)c(Cl)c1Cc1c(O)c(Cl)cc(Cl)c1Cl` [Hexachlorophene, reference compound], in test [1], the IC50 is above 10 µM and the inhibition at 10 µM came to 40%.
In test [2] (10 μM in cell culture media), `O=C(O[C@@H]1Cc2c(O)cc(O)cc2O[C@@H]1c1cc(O)c(O)c(O)c1)c1cc(O)c(O)c(O)c1` had a reduction in fucosylation of 6%. Moreover, the inhibition at 10 µM in test [1] (setting [3]) turned out to be 39%. Moreover, the IC50 in test [1] (setting [4]) is above 10 µM.
Regarding `O=C(O[C@@H]1Cc2c(O)cc(O)cc2O[C@@H]1c1cc(O)c(=O)c2c(O)c(O)cc([C@H]3Oc4cc(O)cc(O)c4C[C@H]3O)c2c1)c1cc(O)c(O)c(O)c1` [Theaflavin Monogallate], the inhibition at 10 µM in test [1] (setting [3]) stood at 88%. For the same compound, the 50% inhibitory concentration (IC50) in test [1] (setting [4]) is below 10 µM.
Consider Carboplatin [reference compound], for which, in test [1] (setting [3]), the “Primary Screen (10 μM), inhibition value” amounted to 45%. Moreover, the IC50 in test [1] (setting [4]) is above 10 µM.
`O=C(O)C1=CC(=C(c2ccc(O)c(C(=O)O)c2)c2ccc(O)c(C(=O)O)c2)C=CC1=O` [Aurin Tricarboxylic Acid]: in test [2] (either concentration tested (data not shown)), the “change of fucosylation level” value is recorded as “did not alter the fucosylation level”. Also, the inhibition at 10 µM in test [1] (setting [3]) came out at 34%. Also, the half-inhibitory concentration (IC50) in test [1] (setting [4]) was above 10 µM.
`Cc1ccc(C(=O)Nc2ccc(S(=O)(=O)O)c3cc(S(=O)(=O)O)cc(S(=O)(=O)O)c23)cc1NC(=O)c1cccc(NC(=O)Nc2cccc(C(=O)Nc3cc(C(=O)Nc4ccc(S(=O)(=O)O)c5cc(S(=O)(=O)O)cc(S(=O)(=O)O)c45)ccc3C)c2)c1` [Suramin, reference compound]: the inhibition at 10 µM in test [1] (setting [3]) is 70%. For the same compound, in test [1] (setting [4]), the IC50 was below 10 µM.
For the compound `COc1ccc(-c2cc(=O)c3c(O)cc(O)cc3o2)cc1O` [Diometin], in test [1] (setting [3]), the inhibition at 10 µM amounted to 35%.

Source of the values: patent publication US20220151983A1, “COMPOUNDS FOR INHIBITING FUCOSYLATION AND METHODS FOR USING THE SAME” (SCORE PHARMA, INC., priority 2019, published 2022).
